Source: PMC6757289, “Design and Characterization of SGK3-PROTAC1, an Isoform Specific SGK3 Kinase PROTAC Degrader” (ACS Chemical Biology, 2019)

Columns and labels:
Assay in all cases: TMT global proteomic analysis of HEK293 cells
Conditions in all cases: HEK293, 0.3 μM, 8 h
MOXD1 = format: cell-based, Homo sapiens
Description: (§1) To establish the specificity of SGK3-PROTAC1 employing an unbiased approach, we performed quantitative Tandem–Mass–Tag (TMT)-labeled global proteomic analysis of HEK293 cells treated in the presence or absence of 0.3 μM SGK3-PROTAC1 compared to either 0.3 μM cisSGK3-PROTAC1 or DMSO for 8 h. Experiments were undertaken in triplicate, and analysis in Proteome Discoverer v2.2 using the Mascot search engine allowed relative quantification of 8766 proteins.
(§2) Figure 4 TMT proteomic analysis of HEK293 cells treated with SGK3-PROTAC1. (A) Cells were treated with DMSO (control), SGK3-PROTAC1 (0.3 μM), or cisSGK3-PROTAC1 (0.3 μM) for 8 h and lysed. Lysates were subjected to immunoblot analysis with the indicated antibodies. (B) Lysates were examined by quantitative proteomics. […]
(§3) Cell culture and proteomic sample preparation
(§4) Cells pellets were lysed with 2 ml of lysis buffer (8 M Urea, 50 mM Ammonium bicarbonate containing protease inhibitor and phosphatase inhibitor). The sample were left on ice for 15 min and were then sonicated for 5 min in ice-cold water bath under high intensity with 30 sec on and off. After sonication, benzonase® endonuclease (Merck Millipore) with the volume ratio of 1: 100 were added into the lysate to degrade DNA and RNA. The lysate were then centrifuged at 12,000 rpm for 15 min at 4 °C, and supernatants were transferred into new eppendorf tubes. The protein concentration were measured with BCA assay (Pierce™ BCA Protein Assay Kit, Thermo). The lysate from each sample was reduced with 5 mM DTT at 45 °C for 30 min. Lysates were briefly centrifuged and were cool down to room temperature before alkylation in the dark with 10 mM iodoacetamide at room temperature. The alkylation was then quenched by the addition of 5 mM DTT. Samples were first digested by Lys-C with the weight ratio of 1:200 (w/w) for 4 h at 30 °c. Then, sample were diluted with 50 mM ammonium bicarbonate to 1.5 M Urea concentration. Samples were then digested with trypsin (Pierce trypsin, Thermo) at an enzyme to protein ratio of 1:50 (w/w) at room temperature with gentle shaking for overnight.
(§5) The digest was stopped by the addition of 1% TFA (v/v), centrifuged at 10,000 g for 10 min at room temperature.
(§6) The supernatant were desalted on 200 mg SepPak tC18 cartridge (Waters). Desalted peptides were dried by vacuum centrifugation using Speedvac (Thermo).
(§7) TMT labelling and Basic C18 reverse phase (bRP) chromatography fractionation Each sample (200 μg of peptides each) was re-suspended in 100 μL of 100 mM TEAB buffer. The TMT labelling reagents were equilibrated to room temperature and 41 μL anhydrous acetonitrile was added to each reagent channel and softly vortexed for 10 min. Peptides were transferred to the corresponding TMT channels and incubated for 1 h at room temperature. The reaction was quenched with 8 μL of 5% hydroxylamine. To ensure complete labelling, 1 µg of labelled samples from each channel were analyzed by LC-MS/MS prior to mix. After evaluation, the complete TMT labelled 9 samples were then combined, acidified and dried. Sep-Pak desalting was then performed and the elution was dried to completeness.
(§8) Ultimate 3000 high-pressure liquid chromatography (HPLC) system (Dionex) were used for basic C18 reverse phase chromatography fractionation operating at 569 µL/min with two buffers: buffer A (10 mM ammonium formate, pH 10) and buffer B (80% ACN, 10 mM ammonium formate, pH 10). The desalted mixture of TMT-labelled peptides were resuspended in 200 µL of buffer A (10 mM ammonium formate, pH10) and separated on a C18 reverse phase column (4.6 × 250 mm, 3.5 μm, Waters) with a gradient from 3% B to 12.5 % B in 10 min, […]
(§9) min, 100% for 5 min, ramping to 3% B in 2.5 min and then 3% for 10 min. A total of 90 fractions (1 min per fraction) were collected before further concatenation into 30 final fractions. Each fraction was then dried and desalted over a C18 StageTip prior to analysis by mass spectrometry. […]

S100A7 = format: cell-based, Homo sapiens
Description: as §1, §2, §3, §4, §5, §6, §7, §8, §9

SDC2 = format: cell-based, Homo sapiens
Description: as §1, §2, §3, §4, §5, §6, §7, §8, §9

SGK3 = target: T1, SGK3 (Homo sapiens, UniProt Q96BR1); format: cell-based; set-up: global proteomic analysis of HEK293 cells treated in the presence or absence of 0.3 μM SGK3-PROTAC1; endogenous in cells; host or cells: HEK293
T1 sequence (Q96BR1 1-496): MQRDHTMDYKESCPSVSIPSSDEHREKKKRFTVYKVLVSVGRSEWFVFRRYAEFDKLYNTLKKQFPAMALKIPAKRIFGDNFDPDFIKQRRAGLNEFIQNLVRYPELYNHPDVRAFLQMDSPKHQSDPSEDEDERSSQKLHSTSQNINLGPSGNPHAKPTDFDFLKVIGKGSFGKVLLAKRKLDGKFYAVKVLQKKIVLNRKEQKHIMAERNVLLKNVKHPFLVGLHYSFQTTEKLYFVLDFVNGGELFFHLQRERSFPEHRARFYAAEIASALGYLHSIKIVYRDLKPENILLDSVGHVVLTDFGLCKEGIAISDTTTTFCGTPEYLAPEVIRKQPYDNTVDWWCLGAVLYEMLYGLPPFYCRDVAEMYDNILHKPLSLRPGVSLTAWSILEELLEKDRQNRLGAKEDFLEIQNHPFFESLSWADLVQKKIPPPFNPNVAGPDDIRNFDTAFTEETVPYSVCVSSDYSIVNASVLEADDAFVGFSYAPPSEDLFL
Description: as §1, §2, §3, §4, §5, §6, §7, §8, §9

SMILES | Abundances (Grouped) (MOXD1) | Ratio: (SGK3-PROTAC1) / (cSGK3-PROTAC1) (MOXD1) | Ratio: (compound) / (DMSO) (MOXD1) | Abundances (Grouped) (S100A7) | Ratio: (SGK3-PROTAC1) / (cSGK3-PROTAC1) (S100A7) | Ratio: (compound) / (DMSO) (S100A7) | Abundances (Grouped) (SDC2) | Ratio: (SGK3-PROTAC1) / (cSGK3-PROTAC1) (SDC2) | Ratio: (compound) / (DMSO) (SDC2) | Abundances (Grouped) (SGK3) | Ratio: (SGK3-PROTAC1) / (cSGK3-PROTAC1) (SGK3) | Ratio: (compound) / (DMSO) (SGK3) | selectivity in global proteome (8766 proteins quantified) (SGK3; vs cisSGK3-PROTAC1 or DMSO)
Cc1ccc(F)c(S(=O)(=O)Nc2ccc(-c3nc(OC[C@H]4CN(CCCCCCOCCOCCOCC(=O)N[C@H](C(=O)N5C[C@H](O)C[C@H]5C(=O)NCc5ccc(-c6scnc6C)cc5)C(C)(C)C)CCO4)c4cn[nH]c4n3)cc2)c1 [SGK3-PROTAC1] | 90.2 | 1.082 | 0.713 | 90.9 | 1.014 | 0.645 | 106.6 | 2.505 | 0.665 | 60.6 | 0.526 | 0.484 | only SGK3 expression being significantly reduced
Cc1ccc(F)c(S(=O)(=O)Nc2ccc(-c3nc(OC[C@H]4CN(CCCCCCOCCOCCOCC(=O)N[C@H](C(=O)N5C[C@@H](O)C[C@H]5C(=O)NCc5ccc(-c6scnc6C)cc5)C(C)(C)C)CCO4)c4cn[nH]c4n3)cc2)c1 [cisSGK3-PROTAC1] | 83.4 |  | 0.656 | 90.1 |  | 1.695 | 37.8 |  | 0.266 | 115.2 |  | 0.949 | 
